# Reference: article PMC12349723, “Computationally accelerated identification of P-glycoprotein inhibitors” (PLOS One, 2025)
# Like-named read-outs stand apart in the source and are kept apart here.
# Test system: DU145-TXR cells
# Experiment: MTT viability assay, reversal of MDR (re-sensitization to paclitaxel) in P-gp overexpressing DU145-TXR cells
# Format: cell-based, human
# Conditions: for % Survival, mean / % Survival / viability at 15 µM: DU145-TXR; for Re-sensitization of DU145-TXR cells to PTX (reversal of MDR): 15 µM compound with or without 500 nM PTX, 48 h, MTT, re-sensitization = 30% or greater decrease in cell viability; for viability at 15 µM: Homo sapiens
# Experimental: The chemotherapeutic sensitive DU145 human prostate cancer cells and the multidrug resistant sub-line, DU145-TXR, were generous gifts from Dr. Evan Keller (University of Michigan, Ann Arbor, MI). The MDR, P-gp overexpressing DU145-TXR cells were maintained under positive selection pressure by supplementing complete medium with 10 nM paclitaxel (Acros Organics, NJ). In addition to the aforementioned cell lines, the chemotherapeutic sensitive A2780 ovarian cancer cells (93112519, Sigma) and the multidrug resistant A2780-ADR (93112520, Sigma) were maintained in complete RPMI media consisting of RPMI-1640 with L-glutamine, 10% fetal bovine serum (FBS; Corning), 100 U/mL penicillin and 100 μg/mL streptomycin in a humidified incubator at 37 °C and 5% CO2. The MDR, P-gp overexpressing A2780-ADR cell line was maintained under positive selection pressure by supplementing complete medium with 100 nM doxorubicin (Fisher Scientific, NJ). The non-cancerous HFL1 (human lung fibroblast) cell line cell line was a generous gift from Dr. Robert Harrod (Southern Methodist University, Dallas, TX) and was maintained in complete F12K media consisting of F12K with 10% fetal bovine serum, 100 U/mL penicillin, and 100 µg/mL streptomycin (Gibco). Flasks and 96 well plates that were used with the non-cancerous line HFL1 were pre-treated with 0.1 mg/ml Collagen Type 1 (Gibco) and rinsed with PBS (Fisher).
# Culture of the DU145, DU145-TXR, and HFL1 cell lines was performed as described in [8]. Culture of the A2780 and A2780-ADR cell lines was performed as described in [9]. MTT assays were performed as described in [8] with minor modifications. LC-MS/MS accumulation assays were performed as described in {Nanayakkara, 2018 #173} [9] with some modifications. […] The inhibitor concentration was lowered to 15 µM here, as the goal of the study was to identify compounds that were effective in reversing MDR at low concentrations, and to determine if the expanded virtual-assisted methods improved on our first-draft attempt. Compounds 56–98 were pre-screened using Resazurin cell viability assays: cells were incubated with 15 µM compound with or without 500 nM PTX for 48 hours, after which cell survival was assessed similar to [39]. Data represent the mean of two separate experiments, with n = 3 samples per experiment (n = 6 total) (S4 Table). The top performing compounds from this initial screen were re-tested with MTT viability assays against DU145-TXR cells, as described below.
# MTT assays measure the reduction of yellow, water soluble 3-(4,5-dimethylthiazol-2-yl)-2,5-diphenyltetrazolium bromide (MTT) to blue, insoluble formazan crystals by cellular reductase processes in living cells. Cells were trypsinized from monolayers and seeded in complete medium in 96 well plates. Cancerous cell lines (DU145, DU145-TXR, A2780, A2780-ADR) were seeded at 3,000 cells per well in complete RPMI medium. The non-cancerous HFL1 line was seeded at 4,000 cells per well in complete F12K medium, in collagen-treated plates (Collagen Type 1, Gibco). Cells were incubated with experimental compounds for 48 hours at 37 °C and 5% CO2 in a humidified incubator. At 48 hours, MTT was added (20 µL/well of 5 mg/mL MTT in PBS) to each well. After incubation for 4 hours, the media was removed, and the formazan crystals were dissolved in 100 µL DMSO per well. Plates containing the semi-adherent A2780 or A2780-ADR lines were spun at 1400 rpm for 3 minutes prior to aspiration of media, and the addition of DMSO. Plates were shaken for 10 minutes at 500 rpm on an Orbital shaker (LabDoctor from MidSci, St Louis, MO). The absorbance was measured at 570 nm using a Bio-Tek Cytation 5 (Bio-Tek, Winooski, VT). The measured absorbance value was correlated with the number of metabolically active cells in that well, corrected for absorbance of media. […]
# [1] = 15 µM compound + 500 nM PTX (Paclitaxel, Taxol), mean of 8 samples
# [2] = 15 µM compound + 500 nM PTX (Paclitaxel, Taxol), trial 1, sample 1
# [3] = 15 µM compound + 500 nM PTX (Paclitaxel, Taxol), trial 1, sample 2
# [4] = 15 µM compound + 500 nM PTX (Paclitaxel, Taxol), trial 1, sample 3
# [5] = 15 µM compound + 500 nM PTX (Paclitaxel, Taxol), trial 1, sample 4
# [6] = 15 µM compound + 500 nM PTX (Paclitaxel, Taxol), trial 2, sample 1
# [7] = 15 µM compound + 500 nM PTX (Paclitaxel, Taxol), trial 2, sample 2
# [8] = 15 µM compound + 500 nM PTX (Paclitaxel, Taxol), trial 2, sample 3
# [9] = 15 µM compound + 500 nM PTX (Paclitaxel, Taxol), trial 2, sample 4
# [10] = 15 µM Compound Alone, mean of 8 samples, read-out: % Survival, mean
# [11] = 15 µM Compound Alone, trial 1, sample 1, read-out: % Survival
# [12] = 15 µM Compound Alone, trial 1, sample 2, read-out: % Survival
# [13] = 15 µM Compound Alone, trial 1, sample 3, read-out: % Survival
# [14] = 15 µM Compound Alone, trial 1, sample 4, read-out: % Survival
# [15] = 15 µM Compound Alone, trial 2, sample 1, read-out: % Survival
# [16] = 15 µM Compound Alone, trial 2, sample 2, read-out: % Survival
# [17] = 15 µM Compound Alone, trial 2, sample 3, read-out: % Survival
# [18] = 15 µM Compound Alone, trial 2, sample 4, read-out: % Survival
SMILES,"% Survival, mean [1]",% Survival [2],% Survival [3],% Survival [4],% Survival [5],% Survival [6],% Survival [7],% Survival [8],% Survival [9],Re-sensitization of DU145-TXR cells to PTX (reversal of MDR),viability at 15 µM [10],viability at 15 µM [11],viability at 15 µM [12],viability at 15 µM [13],viability at 15 µM [14],viability at 15 µM [15],viability at 15 µM [16],viability at 15 µM [17],viability at 15 µM [18],other results
"COc1cccc(N2CCN(c3ccc4nnc(CCC(=O)Nc5ccc(F)c(F)c5)n4n3)CC2)c1 [Compound 101, COc1cccc(c1)N1CCN(CC1)c1ccc2nnc(CCC(=O)Nc3ccc(F)c(F)c3)n2n1]",57.4%,48%,48%,37%,48%,83%,70%,66%,58%,re-sensitized DU145-TXR cells to PTX,112%,121%,110%,111%,113%,117%,106%,109%,104%,
"Cc1ccc(-c2noc(-c3cn(Cc4ccc(NS(=O)(=O)c5ccccc5F)cc4)cn3)n2)cc1 [Compound 103, Cc1ccc(cc1)-c1noc(n1)-c1cn(Cc2ccc(NS(=O)(=O)c3ccccc3F)cc2)cn1]",19.9%,11%,11%,11%,14%,32%,27%,27%,28%,re-sensitized DU145-TXR cells to PTX,76.4%,58%,50%,48%,52%,108%,104%,94%,96%,
"Cc1onc(-c2ccccc2)c1-c1nnc(Cn2cnc3ccccc3c2=O)o1 [Compound 111, Cc1onc(c1-c1nnc(Cn2cnc3ccccc3c2=O)o1)-c1ccccc1]",41.1%,30%,34%,44%,39%,51%,48%,46%,38%,re-sensitized DU145-TXR cells to PTX,102%,111%,93%,90%,94%,106%,115%,108%,103%,
"O=C(NCc1cccc(F)c1)c1nnn2c1Sc1c(C(=O)NCc3cccc(F)c3)nnn1CC2 [Compound 122, Fc1cccc(CNC(=O)c2nnn3CCn4nnc(C(=O)NCc5cccc(F)c5)c4Sc23)c1]",60.4%,61%,55%,61%,62%,65%,63%,54%,61%,re-sensitized DU145-TXR cells to PTX,106%,102%,105%,85%,102%,123%,107%,106%,114%,
"O=C(c1nc(-c2ccccn2)no1)N1CCN(c2nsc3ccccc23)CC1 [Compound 124, O=C(N1CCN(CC1)c1nsc2ccccc12)c1nc(no1)-c1ccccn1]",75.6%,62%,72%,95%,73%,91%,86%,67%,58%,re-sensitized DU145-TXR cells to PTX,98.6%,96%,102%,79%,95%,114%,94%,103%,106%,
"COc1ccc2c3c([nH]c2c1)[C@H](CC(C)C)N1C(=O)[C@H](CCC(=O)OC(C)(C)C)NC(=O)[C@@H]1C3 [Ko143, reference compound]",72.4%,75%,82%,91%,77%,65%,67%,58%,64%,,,,,,,,,,,"% Survival, mean (15 µM Compound Alone, mean of 8 samples): 89.2%; % Survival (15 µM Compound Alone, trial 1, sample 1): 101%; % Survival (15 µM Compound Alone, trial 1, sample 2): 113%; % Survival (15 µM Compound Alone, trial 1, sample 3): 88%; % Survival (15 µM Compound Alone, trial 1, sample 4): 91%; % Survival (15 µM Compound Alone, trial 2, sample 1): 92%; % Survival (15 µM Compound Alone, trial 2, sample 2): 74%; % Survival (15 µM Compound Alone, trial 2, sample 3): 75%; % Survival (15 µM Compound Alone, trial 2, sample 4): 80%"
